The METLIN SMRT retention time set (Domingo-Almenara et al. 2019)

Experiment: gradient 5% acetonitrile 3 min, to 50% in 2 min, to 85% in 15 min, held 3 min, 100 µL/min
Settings: column: Zorbax Extend-C18 2.1 x 50 mm; eluents: water / acetonitrile, 0.1% formic acid
How it was run: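 Values are retention times taken from adduct peaks that software picked and an analyst inspected. The pure standards were run as mixtures of ~100 molecules on HPLC linked to a quadrupole time-of-flight mass spectrometer, in positive and negative ionization mode. A Zorbax Extend-C18 column (2.1 × 50 mm, 1.8 μm) was used at 100 μL/min with water and acetonitrile, each including 0.1% formic acid.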

Molecule `COc1ccc(N2CCN(CCCNC(=O)NC3COc4ccc(OC)cc4C3)CC2)cc1` (centres undefined) has an RP-LC retention time of 687 s.
`Cc1nc2cc(-c3noc(C(C)NC(=O)c4ccccc4)n3)ccc2n(C2CCCC2)c1=O` (centres undefined) showed an RP-LC retention time of 999 s.
`N#Cc1ccc(S(=O)(=O)N2CCOCCNC(=O)[C@H]3CCCC[C@H]32)cc1` showed an RP-LC retention time of 747 s.
Molecule `Cc1ccc(C(=O)N2CCN(c3nnc4ccccn34)CC2)cc1C` has an RP-LC retention time of 676 s.
For `CC(Oc1ccc(F)cc1)C(=O)Nc1ccc(-c2nc(-c3ccc(F)cc3)no2)cc1` (centres undefined), the RP-LC retention time was 1290 s.
Molecule `CCc1ccc(NC(=O)C2CCCN(S(=O)(=O)c3c[nH]c(C(=O)N4CCCC4)c3)C2)cc1` (centres undefined) has an RP-LC retention time of 873 s.
Molecule `CN(C)S(=O)(=O)c1ccc2c(c1)N(CC(=O)NCc1cccc(Cl)c1)C(=O)C1CCCCN21` (centres undefined) has an RP-LC retention time of 957 s.
Work on `O=C(c1cocn1)N1CC(F)(F)C[C@H]1c1nnc(-c2ccncc2)o1` yielded an RP-LC retention time of 638 s.
Molecule `COc1ccc(N2C(=O)CCS2(=O)=O)cc1S(=O)(=O)NCCc1c[nH]c2ccccc12` has an RP-LC retention time of 792 s.
In the case of `CC1(C(=O)Nc2cccc(F)c2)CCCCC(=O)N1` (centres undefined), the RP-LC retention time was 694 s.
With `COc1ccc2nc(C(=O)NCc3ccccc3)cn2n1` the RP-LC retention time was 772 s.
In the case of `CCn1c(=O)c(C)nc2cc(-c3noc(-c4ccc(Br)o4)n3)ccc21`, the RP-LC retention time was 1040 s.
With `CC(C)(C)OC(=O)Cn1cnc2c(-c3ccc(Cl)cc3)csc2c1=O` the RP-LC retention time was 1120 s.
`CC1=C(c2ccccc2)S(=O)(=O)N=C1N1CCCN(C(=O)NCc2ccco2)CC1` showed an RP-LC retention time of 767 s.
`CC1CCCCN1S(=O)(=O)c1ccc(C(=O)Nc2nc3c(s2)Cc2ccccc2-3)cc1` (centres undefined) showed an RP-LC retention time of 1190 s.
With `Cn1cc(C2=CCN(C(=O)c3cccc(Cl)c3)CC2)c2cccnc21` the RP-LC retention time was 901 s.
With `CCS(=O)(=O)N1CC(=O)N(c2ccc(Cl)cc2C)C(C)(C(=O)NCc2ccccc2)C1` (centres undefined) the RP-LC retention time was 906 s.
Molecule `CCc1ccccc1NC(=O)N1CCC(N(CCC(C)C)C2CCOCC2)CC1` has an RP-LC retention time of 665 s.
Molecule `CN(C)C1(CC2CC2)CCN(C(=O)C2CC2)CC1` has an RP-LC retention time of 558 s.
`COc1ccc(NC(=O)NCC23CCC=C2N(C)C(=O)CC3)cc1` (centres undefined) gave an RP-LC retention time of 745 s.
Work on `COCCn1ccc2nc(C)c(C(=O)NCc3ccc(C)o3)cc2c1=O` yielded an RP-LC retention time of 680 s.
In the case of `COc1ccc(NC(=O)Cn2c(=O)n(-c3ccccc3)c3ncccc32)cc1OC`, the RP-LC retention time was 729 s.
In the case of `Cc1cc(C)cc(NC(=O)Nc2nccn(-c3cc(Cl)ccc3C)c2=O)c1`, the RP-LC retention time was 1150 s.
Work on `COc1ccc(NC(=O)C2CCN(c3cncnc3N(C)C)CC2)cc1OC` yielded an RP-LC retention time of 592 s.
In the case of `CCCN(C)c1nccnc1OC1CCN(C(=O)CC)C1` (centres undefined), the RP-LC retention time was 694 s.
With `CCOc1ccc(C(=O)NC2CCN(c3cc(-c4ccccc4)[nH]n3)C2)cc1OCC` (centres undefined) the RP-LC retention time was 748 s.
Molecule `Cc1ccc(-c2csc(NC(=O)Cc3csc(-c4ccccc4)n3)n2)cc1C` has an RP-LC retention time of 1230 s.
In the case of `COc1cccc(NC(=O)Cn2ncc3c(c2=O)N(CC2CC2)C(=O)CS3)c1`, the RP-LC retention time was 775 s.
`Cc1nn(C)cc1S(=O)(=O)N(Cc1ccccc1)c1ccccc1` gave an RP-LC retention time of 861 s.
Work on `CCCN(CC1CCOC1)S(=O)(=O)c1cc(Cl)ccc1OC` (centres undefined) yielded an RP-LC retention time of 939 s.
`CCOc1cccc(CNC(=O)c2cnc(-c3ccccc3)nc2-c2ccncc2)c1` gave an RP-LC retention time of 855 s.
Molecule `CCN(C(=O)c1ccccc1Br)c1nc(-c2ccccc2)cs1` has an RP-LC retention time of 1330 s.
`Cc1ccc(CNC(=O)N2CCCC(C)(C(=O)NCc3ccc(F)cc3)C2)cc1` (centres undefined) showed an RP-LC retention time of 890 s.
`Cc1ccc(CNC(=O)c2cc(-c3ccncc3)cn2Cc2ccccc2C)o1` showed an RP-LC retention time of 749 s.
Work on `CCc1ccc(-n2ncc3c(=O)n(Cc4nc(-c5cc(OC)c(OC)c(OC)c5)no4)cnc32)cc1` yielded an RP-LC retention time of 1080 s.
In the case of `COC(=O)C1=C(CN2CCOCC2)NC(=O)NC1c1ccc(C)cc1C` (centres undefined), the RP-LC retention time was 609 s.
Molecule `CCOC(=O)CC(=O)CSc1nc(-c2ccccc2)ns1` has an RP-LC retention time of 993 s.
`O=C(CSCc1ccccc1)N1CCC(c2nnc(-c3ccco3)s2)CC1` gave an RP-LC retention time of 837 s.
With `Cc1csc(-c2cc(S(=O)(=O)Nc3ccc(F)cc3)cn2CC(=O)N2CCCC2)n1` the RP-LC retention time was 853 s.
With `COc1cccc(-c2noc(N3CCN(c4ccccn4)CC3)n2)c1OC` the RP-LC retention time was 645 s.
In the case of `O=C(NCCc1c[nH]c2ccc(Cl)cc12)c1ccc(F)cc1-n1cnnn1`, the RP-LC retention time was 805 s.
For `COc1cccc(Nc2c(C(N)=O)cnc3c(C)cc(S(=O)(=O)c4cccc(C(=O)N(C)C)c4)cc23)c1`, the RP-LC retention time was 683 s.
Work on `O=C(NCc1ccco1)C1CCN(c2ccc3nnc(-c4ccccc4F)n3n2)CC1` yielded an RP-LC retention time of 708 s.
With `O=C(Cn1cnc2c(-c3ccc(Cl)cc3)csc2c1=O)N1CCCCC1` the RP-LC retention time was 922 s.
`O=C(C1CCN(c2nnc(-n3cccc3)s2)CC1)N1CCN(c2ncccn2)CC1` showed an RP-LC retention time of 738 s.
For `CC1Oc2ccc(-c3csc(NC(=O)c4cccc(Br)c4)n3)cc2NC1=O` (centres undefined), the RP-LC retention time was 995 s.
Work on `CCCn1c(=O)c(N2CCN(C(=O)CC3CCCC3)CC2)nc2ccccc21` yielded an RP-LC retention time of 1130 s.
Molecule `Cc1cc(C)c(-c2csc(NC(=O)c3ccc(S(=O)(=O)N4CCOCC4)cc3)n2)c(C)c1` has an RP-LC retention time of 1110 s.
Work on `O=C(NCC1CCCO1)N1CCc2[nH]nc(-c3ccccc3)c2C1` (centres undefined) yielded an RP-LC retention time of 644 s.
Work on `O=C(NCc1ccco1)c1ccc2c(c1)CC(=O)N2Cc1ccc(F)cc1` yielded an RP-LC retention time of 794 s.
With `Cc1ccc(-c2nsc3c(=O)n(C)c(SCC(=O)N4CCOc5ccc(C)cc54)nc23)cc1` the RP-LC retention time was 1220 s.
For `COc1ccc2nc(C(=O)NCc3ccccc3C)cn2n1`, the RP-LC retention time was 843 s.
Molecule `CCCC(=O)Nc1ccc2c(c1)N(C(=O)c1cccs1)CCC2` has an RP-LC retention time of 801 s.
Work on `CC(C)c1nnc(-c2ccc(=O)n(CC(=O)N3CCN(c4ccccn4)CC3)c2)o1` yielded an RP-LC retention time of 570 s.
In the case of `CC1CCN(C(=O)C2CCc3sc(C(=O)N(C)C)cc3C2)CC1` (centres undefined), the RP-LC retention time was 717 s.
`Cc1oc(CNC(=O)Nc2ccccc2Cl)nc1C(=O)N1CCCC1` showed an RP-LC retention time of 680 s.
Work on `CCN(C(=O)C1CCCN(c2ncnc3c2nc2n3CCCCC2)C1)c1ccccc1C` (centres undefined) yielded an RP-LC retention time of 890 s.
Work on `CC1CCC2(CC1)NC(=O)N(CC(=O)NCCCc1ccccc1)C2=O` (centres undefined) yielded an RP-LC retention time of 832 s.
With `COc1ccccc1CNC(=O)Cn1c(=O)cc(-c2nc(C(C)C)no2)c2ccccc21` the RP-LC retention time was 972 s.
Work on `CCN(CCN(C)C)C(=O)c1cc2c(s1)-c1ccc(Cl)cc1S(=O)(=O)C2` yielded an RP-LC retention time of 660 s.
Work on `Cc1nc(C)c(C(=O)N2CCCC2c2nc(CCOCC3CC3)no2)s1` (centres undefined) yielded an RP-LC retention time of 732 s.
In the case of `O=C(Nc1cnc(N2CCCC2)nc1)c1cccc(F)c1`, the RP-LC retention time was 716 s.
For `COc1cc(Cl)c(NC(=O)C2CCCN(C(=O)c3cc(-c4ccncc4)n[nH]3)C2)c(OC)c1` (centres undefined), the RP-LC retention time was 642 s.
Molecule `Cc1nc(C2CCN(C(=O)CCc3c[nH]c4ccccc34)CC2)n[nH]1` has an RP-LC retention time of 603 s.
`CCn1c(C(=O)N2CCOCC2)cc2c(=O)oc3ccccc3c21` showed an RP-LC retention time of 713 s.
Molecule `O=C(NCC1CCN(C(=O)c2ccccc2F)CC1)C(=O)Nc1ccon1` has an RP-LC retention time of 636 s.
For `Cc1ccc2nc(C(=O)NCc3cccs3)cn2c1`, the RP-LC retention time was 646 s.
For `Cc1ccccc1NC(=O)c1nnc(CSCC(=O)N2CCN(c3ccccn3)CC2)s1`, the RP-LC retention time was 637 s.
`Cc1ccc(S(=O)(=O)c2cnc(N3CCN(c4cc(Cl)ccc4C)CC3)nc2N)cc1` showed an RP-LC retention time of 1320 s.
Work on `Cc1ccc(C2=NC3(CCN(C(=O)Cc4ccccc4C)CC3)ON2)cc1` yielded an RP-LC retention time of 933 s.
`O=C(Cn1ncc2c(N3CCN(c4ccccn4)CC3)ncnc21)Nc1ccc(F)cc1Cl` showed an RP-LC retention time of 650 s.
In the case of `COc1ccc(Cc2nnc3sc(COc4ccc(OC)cc4)nn23)cc1`, the RP-LC retention time was 902 s.
Work on `Cc1ccccc1CNC(=O)CN1C(=O)CSc2cccn2-c2ccccc21` yielded an RP-LC retention time of 916 s.
Molecule `CCOc1ccc(-c2ccc3nnc(SCC(=O)Nc4nc(C)cs4)n3n2)cc1` has an RP-LC retention time of 752 s.
Work on `CCOCC(=O)N1C[C@@H]2CCCN3CCC[C@@H]([C@H]23)[C@H]1CCCC(=O)N1CCOCC1` yielded an RP-LC retention time of 563 s.
For `Cc1ccc(S(=O)(=O)N2C(=O)CCC2C(=O)NC2CCCC2)cc1C` (centres undefined), the RP-LC retention time was 855 s.
`CSc1ccc(CNC(=O)CCC(=O)N2Cc3cccn3-c3ccccc32)cc1` showed an RP-LC retention time of 961 s.
For `Cn1ccc2cc(S(=O)(=O)N3CCCC(C(=O)N4CCN(c5ccccn5)CC4)C3)ccc21` (centres undefined), the RP-LC retention time was 663 s.
For `COc1ccc(NC(=O)CCC2CCN(c3cc(NC4CC4)ncn3)CC2)cc1OC`, the RP-LC retention time was 646 s.
Work on `O=C(NCc1ccc(F)cc1)C1CCCN(c2nnc3ccc(Cl)cn23)C1` (centres undefined) yielded an RP-LC retention time of 749 s.
With `Cc1noc(C)c1CCC(=O)N1CCN(Cc2csc(-c3ccccc3)n2)CC1` the RP-LC retention time was 576 s.
`Cc1ccc(-n2ccc(=O)c(-c3nc(-c4ccc(Cl)cc4)no3)n2)cc1` showed an RP-LC retention time of 1030 s.
Work on `CSc1n[nH]c(-c2cccs2)n1` yielded an RP-LC retention time of 714 s.
`COc1cccc(-c2noc(CN3C(=O)COc4cc(C(C)(C)C)ccc43)n2)c1` gave an RP-LC retention time of 1200 s.
Molecule `Cc1nc(N)sc1-c1ccnc(Nc2ccc(N3CCOCC3)cc2)n1` has an RP-LC retention time of 624 s.
`CCc1ccc(NC(=O)C2(C)Oc3cccnc3N(C(C)C)C2=O)cc1` (centres undefined) gave an RP-LC retention time of 1120 s.
`Cc1nnc(-c2cn(CC(=O)Nc3ccc(Cl)cc3)c3ccccc23)o1` gave an RP-LC retention time of 856 s.
In the case of `CC1CCN(CC2CCCCCN2C(=O)Nc2ccc3c(c2)OCCO3)CC1` (centres undefined), the RP-LC retention time was 684 s.
For `Nc1ccc(CCNc2ncnc3c2ncn3C2OC(CO)C(O)C2O)cc1` (centres undefined), the RP-LC retention time was 540 s.
